Target: T1, Androgen Receptor (AR) protein (Homo sapiens, UniProt P10275, T878A)
T1 construct: endogenous in cells; host or cells: LNCaP
Assay: Androgen Receptor (AR) protein degradation assay in LNCaP cells, western blotting
Type: cell-based
Details: 20 h; for inhibition at 0.01 µM: 0.01 μM compound; for inhibition at 0.1 µM: 0.1 μM compound; for inhibition at 1 µM: 1 μM compound; for inhibition at 10 µM: 10 μM compound
Method in brief: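 AR protein level was detected by western blot (ECL) against GAPDH or β-actin controls, with 8 μg lysate protein loaded per lane after BCA quantification. Lysates came from LNCaP cells exposed to test compound for 20 h, following 3 days of growth in RPMI/10% FBS.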

T1 sequence (P10275 whole entry T878A): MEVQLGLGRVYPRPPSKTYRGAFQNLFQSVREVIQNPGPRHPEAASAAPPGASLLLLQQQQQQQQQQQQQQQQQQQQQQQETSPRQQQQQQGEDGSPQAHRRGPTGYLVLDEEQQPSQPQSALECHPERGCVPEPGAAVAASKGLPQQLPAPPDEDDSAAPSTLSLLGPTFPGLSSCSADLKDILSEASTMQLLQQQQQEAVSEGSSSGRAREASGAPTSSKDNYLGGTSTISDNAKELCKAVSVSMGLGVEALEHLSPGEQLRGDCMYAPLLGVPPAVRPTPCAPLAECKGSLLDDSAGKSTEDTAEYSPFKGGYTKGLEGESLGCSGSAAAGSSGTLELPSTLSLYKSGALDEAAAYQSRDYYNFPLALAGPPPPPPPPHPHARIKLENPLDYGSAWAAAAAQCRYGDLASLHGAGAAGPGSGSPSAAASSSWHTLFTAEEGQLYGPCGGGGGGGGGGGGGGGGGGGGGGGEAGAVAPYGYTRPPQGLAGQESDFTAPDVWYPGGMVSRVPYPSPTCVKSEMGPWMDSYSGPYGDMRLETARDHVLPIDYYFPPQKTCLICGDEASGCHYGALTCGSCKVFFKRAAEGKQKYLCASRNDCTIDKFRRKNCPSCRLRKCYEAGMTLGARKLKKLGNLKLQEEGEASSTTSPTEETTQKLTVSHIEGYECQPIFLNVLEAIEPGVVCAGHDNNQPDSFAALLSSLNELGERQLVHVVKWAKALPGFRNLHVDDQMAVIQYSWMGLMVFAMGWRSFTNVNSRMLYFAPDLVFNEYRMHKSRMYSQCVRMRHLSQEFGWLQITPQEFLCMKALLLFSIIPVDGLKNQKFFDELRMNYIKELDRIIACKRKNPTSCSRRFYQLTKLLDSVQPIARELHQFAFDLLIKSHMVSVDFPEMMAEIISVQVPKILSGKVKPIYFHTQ
T1 sequence (Q96SW2 whole entry partner): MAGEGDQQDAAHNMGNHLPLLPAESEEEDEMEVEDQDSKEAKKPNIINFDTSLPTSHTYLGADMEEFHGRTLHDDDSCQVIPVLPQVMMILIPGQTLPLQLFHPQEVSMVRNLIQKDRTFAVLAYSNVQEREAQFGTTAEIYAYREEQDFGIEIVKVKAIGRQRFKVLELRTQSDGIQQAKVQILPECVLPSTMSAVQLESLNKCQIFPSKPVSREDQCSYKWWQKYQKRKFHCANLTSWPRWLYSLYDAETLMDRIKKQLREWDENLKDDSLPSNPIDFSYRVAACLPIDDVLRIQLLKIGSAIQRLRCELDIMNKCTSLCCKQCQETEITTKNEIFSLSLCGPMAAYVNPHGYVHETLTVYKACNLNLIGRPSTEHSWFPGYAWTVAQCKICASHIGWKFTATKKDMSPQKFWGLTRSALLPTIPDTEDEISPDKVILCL

SMILES	inhibition at 0.01 µM	inhibition at 0.1 µM	inhibition at 1 µM	inhibition at 10 µM
N#Cc1ccc(N2CCC(C(=O)Nc3ccc(N4CCC(CN5CC6(C5)CN(c5ccc7c(c5)C(=O)N(C5CCC(=O)NC5=O)C7=O)C6)CC4)cn3)CC2)cc1Cl (stereo not drawn) [Example 67, 1-(3-chloro-4-cyanophenyl)-N-(5-(4-((6-(2-(2,6-dioxopiperidin-3-yl)-1,3-dioxoisoindolin-5-yl)-2,6-diazaspiro[3.3]heptan-2-yl)methyl)piperidin-1-yl)pyridin-2-yl)piperidine-4-carboxamide]	46%	90%	88%	86%
N#Cc1ccc(N2CCC(C(=O)Nc3cnc(N4CCC(CCN5CCN(c6ccc7c(c6)C(=O)N(C6CCC(=O)NC6=O)C7=O)CC5)CC4)cn3)CC2)cc1C(F)(F)F (stereo not drawn) [Example 156, 1-(4-cyano-3-(trifluoromethyl)phenyl)-N-(5-(4-(2-(4-(2-(2,6-dioxopiperidin-3-yl)-1,3-dioxoisoindolin-5-yl)piperazin-1-yl)ethyl)piperidin-1-yl)pyrazin-2-yl)piperidine-4-carboxamide]	35%	76%	96%	–
N#Cc1ccc(N2CCC(C(=O)Nc3ccc(N4CCC5(CC4)CN(C(=O)C4CCN(c6ccc7c(c6)C(=O)N(C6CCC(=O)NC6=O)C7=O)CC4)C5)cn3)CC2)cc1C(F)(F)F (stereo not drawn) [Example 129, 1-(4-cyano-3-(trifluoromethyl)phenyl)-N-(5-(2-(1-(2-(2,6-dioxopiperidin-3-yl)-1,3-dioxoisoindolin-5-yl)piperidine-4-carbonyl)-2,7-diazaspiro[3.5]nonan-7-yl)pyridin-2-yl)piperidine-4-carboxamide]	11%	42%	71%	–
N#Cc1ccc(N2CCC(C(=O)Nc3ccc(N4CC[C@H](CN5CC6(CCN(c7ccc8c(c7)C(=O)N(C7CCC(=O)NC7=O)C8=O)CC6)C5)C4)cn3)CC2)cc1C(F)(F)F (stereo partly drawn) [Example 62, 1-(4-cyano-3-(trifluoromethyl)phenyl)-N-(5-((3R)-3-((7-(2-(2,6-dioxopiperidin-3-yl)-1,3-dioxoisoindolin-5-yl)-2,7-diazaspiro[3.5]nonan-2-yl)methyl)pyrrolidin-1-yl)pyridin-2-yl)piperidine-4-carboxamide]	69%	95%	96%	87.5%
N#Cc1ccc(N2CCC(C(=O)Nc3ccc(N4CCN(C(=O)CCCCCNc5ccc6c(c5)C(=O)N(C5CCC(=O)NC5=O)C6=O)CC4)cn3)CC2)cc1C(F)(F)F (stereo not drawn) [Example 111, 1-(4-cyano-3-(trifluoromethyl)phenyl)-N-(5-(4-(6-((2-(2,6-dioxopiperidin-3-yl)-1,3-dioxoisoindolin-5-yl)amino)hexanoyl)piperazin-1-yl)pyridin-2-yl)piperidine-4-carboxamide]	29%	70%	67%	67%
N#Cc1ccc(N2CCC(C(=O)Nc3ccc(N4CCC(CN5CCN(C[C@H]6CCN(c7ccc8c(c7)C(=O)N(C7CCC(=O)NC7=O)C8=O)C6)CC5)CC4)cn3)CC2)cc1C(F)(F)F (stereo partly drawn) [Example 14, 1-(4-cyano-3-(trifluoromethyl)phenyl)-N-(5-(4-((4-(((3R)-1-(2-(2,6-dioxopiperidin-3-yl)-1,3-dioxoisoindolin-5-yl)pyrrolidin-3-yl)methyl)piperazin-1-yl)methyl)piperidin-1-yl)pyridin-2-yl)piperidine-4-carboxamide]	72%	98%	97%	–
CC1(CN2CCC(COc3ccc(NC(=O)C4CCN(c5ccc(C#N)c(C(F)(F)F)c5)CC4)nc3)CC2)CN(c2ccc3c(c2)C(=O)N(C2CCC(=O)NC2=O)C3=O)C1 (stereo not drawn) [Example 184, 1-(4-cyano-3-(trifluoromethyl)phenyl)-N-(5-((1-((1-(2-(2,6-dioxopiperidin-3-yl)-1,3-dioxoisoindolin-5-yl)-3-methylazetidin-3-yl)methyl)piperidin-4-yl)methoxy)pyridin-2-yl)piperidine-4-carboxamide]	72%	91%	97%	–
N#Cc1ccc(N2CCC(C(=O)Nc3ccc(N4CCC(C(=O)N5CC6(CCN(c7ccc8c(c7)C(=O)N(C7CCC(=O)NC7=O)C8=O)CC6)C5)CC4)cn3)CC2)cc1C(F)(F)F (stereo not drawn) [Example 154, 1-(4-cyano-3-(trifluoromethyl)phenyl)-N-(5-(4-(7-(2-(2,6-dioxopiperidin-3-yl)-1,3-dioxoisoindolin-5-yl)-2,7-diazaspiro[3.5]nonane-2-carbonyl)piperidin-1-yl)pyridin-2-yl)piperidine-4-carboxamide]	26%	86%	91%	–
N#Cc1ccc(N2CCC(C(=O)Nc3ccc(OC4CCN(CC5CCN(c6cc7c(cc6F)C(=O)N(C6CCC(=O)NC6=O)C7=O)CC5)CC4)cn3)CC2)cc1C(F)(F)F (stereo not drawn) [Example 170, 1-(4-cyano-3-(trifluoromethyl)phenyl)-N-(5-((1-((1-(2-(2,6-dioxopiperidin-3-yl)-6-fluoro-1,3-dioxoisoindolin-5-yl)piperidin-4-yl)methyl)piperidin-4-yl)oxy)pyridin-2-yl)piperidine-4-carboxamide]	52%	90%	97%	–
N#Cc1ccc(N2CCC(C(=O)Nc3ccc(N4CCC(CCN5CC(N6CCN(c7ccc8c(c7)C(=O)N(C7CCC(=O)NC7=O)C8=O)CC6)C5)CC4)cn3)CC2)cc1C(F)(F)F (stereo not drawn) [Example 97, 1-(4-cyano-3-(trifluoromethyl)phenyl)-N-(5-(4-(2-(3-(4-(2-(2,6-dioxopiperidin-3-yl)-1,3-dioxoisoindolin-5-yl)piperazin-1-yl)azetidin-1-yl)ethyl)piperidin-1-yl)pyridin-2-yl)piperidine-4-carboxamide]	39%	93%	96%	–
N#Cc1ccc(N2CCC(C(=O)Nc3ccc(OCC4CCN(CC5CN(c6ccc7c(c6)C(=O)N(C6CCC(=O)NC6=O)C7=O)C5)CC4)cn3)CC2)cc1C(F)(F)F (stereo not drawn) [Example 183, 1-(4-cyano-3-(trifluoromethyl)phenyl)-N-(5-((1-((1-(2-(2,6-dioxopiperidin-3-yl)-1,3-dioxoisoindolin-5-yl)azetidin-3-yl)methyl)piperidin-4-yl)methoxy)pyridin-2-yl)piperidine-4-carboxamide]	72%	87%	93%	–
C[C@@H]1CN(CC2CN(c3ccc(NC(=O)C4CCN(c5ccc(C#N)c(C(F)(F)F)c5)CC4)nc3)C2)CCN1CC1CN(c2ccc3c(c2)C(=O)N(C2CCC(=O)NC2=O)C3=O)C1 (stereo partly drawn) [Example 32, 1-(4-cyano-3-(trifluoromethyl)phenyl)-N-(5-(3-(((3R)-4-((1-(2-(2,6-dioxopiperidin-3-yl)-1,3-dioxoisoindolin-5-yl)azetidin-3-yl)methyl)-3-methylpiperazin-1-yl)methyl)azetidin-1-yl)pyridin-2-yl)piperidine-4-carboxamide]	62%	99%	99%	–
N#Cc1ccc(N2CCC(C(=O)Nc3ccc(N4CCC(CN5CCN(C[C@H]6CCN(c7cc8c(cc7F)C(=O)N(C7CCC(=O)NC7=O)C8=O)C6)CC5)CC4)cn3)CC2)cc1C(F)(F)F (stereo partly drawn) [Example 19, 1-(4-cyano-3-(trifluoromethyl)phenyl)-N-(5-(4-((4-(((3R)-1-(2-(2,6-dioxopiperidin-3-yl)-6-fluoro-1,3-dioxoisoindolin-5-yl)pyrrolidin-3-yl)methyl)piperazin-1-yl)methyl)piperidin-1-yl)pyridin-2-yl)piperidine-4-carboxamide]	42%	93%	96%	–
CN(CCC1CCN(c2ccc(NC(=O)C3CCN(c4ccc(C#N)c(C(F)(F)F)c4)CC3)nc2)CC1)C1CCN(c2ccc3c(c2)C(=O)N(C2CCC(=O)NC2=O)C3=O)CC1 (stereo not drawn) [Example 102, 1-(4-cyano-3-(trifluoromethyl)phenyl)-N-(5-(4-(2-((1-(2-(2,6-dioxopiperidin-3-yl)-1,3-dioxoisoindolin-5-yl)piperidin-4-yl)(methyl)amino)ethyl)piperidin-1-yl)pyridin-2-yl)piperidine-4-carboxamide]	35%	90%	92%	–
N#Cc1ccc(N2CCC(C(=O)Nc3ccc(N4CCC(CN5CCN(C[C@@H]6CCN(c7cc8c(cc7F)C(=O)N(C7CCC(=O)NC7=O)C8=O)C6)CC5)CC4)cn3)CC2)cc1C(F)(F)F (stereo partly drawn) [Example 38, 1-(4-cyano-3-(trifluoromethyl)phenyl)-N-(5-(4-((4-(((3S)-1-(2-(2,6-dioxopiperidin-3-yl)-6-fluoro-1,3-dioxoisoindolin-5-yl)pyrrolidin-3-yl)methyl)piperazin-1-yl)methyl)piperidin-1-yl)pyridin-2-yl)piperidine-4-carboxamide]	44%	93%	97%	–
N#Cc1ccc(N2CCC(C(=O)Nc3ccc(N4CCC(OCCN5CCN(c6cccc7c6C(=O)N(C6CCC(=O)NC6=O)C7=O)CC5)CC4)cn3)CC2)cc1C(F)(F)F (stereo not drawn) [Example 152, 1-(4-cyano-3-(trifluoromethyl)phenyl)-N-(5-(4-(2-(4-(2-(2,6-dioxopiperidin-3-yl)-1,3-dioxoisoindolin-4-yl)piperazin-1-yl)ethoxy)piperidin-1-yl)pyridin-2-yl)piperidine-4-carboxamide]	-46%	28%	29%	–
N#Cc1ccc(N2CCC(F)(C(=O)Nc3ccc(N4CCC(CN5CCN(C6CCN(c7ccc8c(c7)CN(C7CCC(=O)NC7=O)C8=O)CC6)CC5)CC4)cn3)CC2)cc1C(F)(F)F (stereo not drawn) [Example 141, 1-(4-cyano-3-(trifluoromethyl)phenyl)-N-(5-(4-((4-(1-(2-(2,6-dioxopiperidin-3-yl)-1-oxoisoindolin-5-yl)piperidin-4-yl)piperazin-1-yl)methyl)piperidin-1-yl)pyridin-2-yl)-4-fluoropiperidine-4-carboxamide]	66%	92%	90%	–

From patent US12122763B2, “Substituted piperidines for androgen receptor degradation” (UBIX THERAPEUTICS, INC., priority 2020, dated 2024)
